Experimental data as given in US20240166639A1, “POTENT AND SELECTIVE COMPOUNDS AS SEROTONIN 1B RECEPTOR MODULATORS” (LEUKOS BIOTECH, S.L., priority 2020, published 2024).
Structures can show the parent of a compound that is named as a salt.

Experiments:
HL-60 = experiment: Cell viability assay, AML cell line HL-60; type: cell-based; conditions: 48 h treatment, live cells by flow cytometry
Method: (§1) 0.15×10^6 AML cell lines (HL-60 or MonoMac-1) per mL were cultured in completed RPMI medium, supplemented with 10% Fetal bovine serum (FBS). Compounds were added to the medium at the concentration indicated (0.1, 1 and 10 μM), while controls were treated with equivalent concentration of vehicle (DMSO). Primary validation screenings were analyzed after 72 h of treatment, EC50 was determined upon 48 h treatments. Cells were stained with the live-dead discrimination dye 7-aminoactinomycin D (7-AAD) and Hoechst 33342 and acquired in a flow cytometer, with a volumetric counting. Live cells were discriminated based on a discrete FSC-SSC profile, 7-AAD negativity and dim positivity to Hoechst 33342. EC50 was calculated with the Prism GraphPad software.

MonoMac-1 = experiment: Cell viability assay, AML cell line MonoMac-1; type: cell-based; conditions: 48 h treatment, live cells by flow cytometry
Method: as §1

human 5-HT1B receptor = human 5-HT1B receptor (Homo sapiens (Human), UniProt P28222); experiment: Competition binding in human 5-HT1B receptor; conditions: [3H]-GR125743, Hela-5-HT1B membranes; read-out: h5-HT1B Ki
human 5-HT1B receptor, sequence (P28222 whole entry): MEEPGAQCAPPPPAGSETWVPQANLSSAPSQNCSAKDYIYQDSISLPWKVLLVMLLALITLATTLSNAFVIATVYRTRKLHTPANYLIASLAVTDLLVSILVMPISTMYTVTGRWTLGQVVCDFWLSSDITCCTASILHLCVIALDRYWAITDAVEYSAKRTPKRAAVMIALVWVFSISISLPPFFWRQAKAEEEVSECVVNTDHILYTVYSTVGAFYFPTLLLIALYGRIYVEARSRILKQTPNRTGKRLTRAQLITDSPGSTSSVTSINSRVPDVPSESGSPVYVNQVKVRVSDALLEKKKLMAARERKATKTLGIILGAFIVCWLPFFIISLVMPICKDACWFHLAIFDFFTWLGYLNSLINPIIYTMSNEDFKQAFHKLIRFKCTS
Method: Serotonin 5-HT1B receptor competition binding experiments were carried out in a polypropylene 96-well plate. In each well was incubated 5 μg of membranes from Hela-5-HT1B cell line prepared in the laboratory (Lot: A001/14-11-2011, protein concentration=3179 μg/ml), 1.5 nM [^3H]-GR125743 ([…], 0.1 mCi/ml, Perkin Elmer NET1172100UC) and compounds studied and standard. Non-specific binding was determined in the presence of GR55562 10 μM (TOCRIS 1054). The reaction mixture (Vt: 250 μl/well) was incubated at 25° C. for 90 min, 200 μL was transfered to GF/C 96-well plate (Millipore, Madrid, Spain) pretreated with 0.5% of PEI and treated with binding buffer (Tris-HCl 50 mM, EDTA 1 mM, MgCl2 10 mM, pH=7.4), after was filtered and washed four times with 250 μl wash buffer (Tris-HCl 50 mM, pH=7.4), before measuring in a microplate beta scintillation counter (Microbeta Trilux, PerkinElmer, Madrid, Spain). […] From the IC50 the Ki is calculated according to the following formula: […]
(§2) Being: • IC50: inhibitory concentration, • D: real concentration of radioligand and • Kd: dissociation constant (affinity of radioligand to the receptor).

human 5-HT2A receptor = human 5-HT2A receptor (Homo sapiens (Human), UniProt P28223); experiment: Competition binding in human 5-HT2A receptor; conditions: [3H]-Ketanserin, CHO-5-HT2A membranes; read-out: h5-HT2A Ki
human 5-HT2A receptor, sequence (P28223 whole entry): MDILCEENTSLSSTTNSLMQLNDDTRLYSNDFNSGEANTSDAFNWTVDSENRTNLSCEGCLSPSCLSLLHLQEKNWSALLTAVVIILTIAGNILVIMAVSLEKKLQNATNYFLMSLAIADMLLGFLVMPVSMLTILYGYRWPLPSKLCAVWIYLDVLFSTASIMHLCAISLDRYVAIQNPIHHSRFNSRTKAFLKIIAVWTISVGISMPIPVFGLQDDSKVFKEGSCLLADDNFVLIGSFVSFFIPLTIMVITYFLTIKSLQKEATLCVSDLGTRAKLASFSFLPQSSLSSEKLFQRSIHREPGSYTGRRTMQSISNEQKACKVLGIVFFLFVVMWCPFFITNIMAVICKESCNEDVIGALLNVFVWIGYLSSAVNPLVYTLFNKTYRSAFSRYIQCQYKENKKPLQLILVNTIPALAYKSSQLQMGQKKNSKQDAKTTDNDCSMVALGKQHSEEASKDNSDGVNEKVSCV
Method: Serotonin 5-HT2A receptor competition binding experiments were carried out in a polypropilene 96-well plate. In each well was incubated 80 μg of membranes from CHO-5-HT2A cell line prepared in the laboratory (protein concentration=4337 μg/ml), 1 nM [^3H]-Ketanserin (47.3 Ci/mmol, 1 mCi/ml, Perkin Elmer NET791250UC) and compounds studied and standard. Non-specific binding was determined in the presence of Methysergide 1 μM (Sigma M137). The reaction mixture (Vt: 250 μl/well) was incubated at 37° C. for 30 min, 200 μL was transfered to GF/B 96-well plate (Millipore, Madrid, Spain) pretreated with 0.5% of PEI and treated with binding buffer (Tris-HCl 50 mM, pH=7.4), after was filtered and washed six times with 250 μl wash buffer (Tris-HCl 50 mM, pH=6.6), before measuring in a microplate beta scintillation counter (Microbeta Trilux, PerkinElmer, Madrid, Spain).
The raw radioactivity data is adjusted to a logistic regression of 4 parameters using GraphPad Prism software, from the specific junction the value of IC50 is obtained. From the IC50 the Ki is calculated according to the following formula: […]
as §2

Structure (SMILES)	EC50 (HL-60; Homo sapiens, HL-60) [nM]	EC50 (MonoMac-1; Mono-Mac-1) [nM]	EC50 (HL-60) [nM]	EC50 (MonoMac-1) [nM]	Ki (human 5-HT1B receptor) [nM]	Ki (human 5-HT2A receptor) [nM]
Cc1nc(-c2ccc(-c3ccc(C(=O)Nc4ccc(Br)c(OCCN(C)C)c4)cn3)c(C3CC3)c2)no1 [Example 1, N-(4-bromo-3-(2-(dimethylamino)ethoxy)phenyl)-6-(2-cyclopropyl-4-(5-methyl-1,2,4-oxadiazol-3-yl)phenyl)nicotinamide]	1000	790				
Cc1nc(-c2ccc(-c3ccc(C(=O)Nc4ccc(Br)c(OCCN(C)C)c4)cn3)c(F)c2)no1 [Example 2, N-(4-bromo-3-(2-(dimethylamino)ethoxy)phenyl)-6-(2-fluoro-4-(5-methyl-1,2,4-oxadiazol-3-yl)phenyl)nicotinamide]	580	1110				
Cc1nc(-c2ccc(-c3ccc(C(=O)Nc4ccc(Br)c(OCCN(C)C)c4)cn3)c(Cl)c2)no1 [Example 3, N-(4-bromo-3-(2-(dimethylamino)ethoxy)phenyl)-6-(2-chloro-4-(5-methyl-1,2,4-oxadiazol-3-yl)phenyl)nicotinamide]	1620	870				
COc1cc(-c2noc(C)n2)ccc1-c1ccc(C(=O)Nc2ccc(Br)c(OCCN(C)C)c2)cn1 [Example 5, N-(4-bromo-3-(2-(dimethylamino)ethoxy)phenyl)-6-(2-methoxy-4-(5-methyl-1,2,4-oxadiazol-3-yl)phenyl)nicatinamide]			1180	1140		
Cc1nc(-c2ccc(-c3ccc(C(=O)Nc4ccc(C#N)c(OCCN(C)C)c4)cn3)c(F)c2)no1 [Example 8, N-(4-cyano-3-(2-(dimethylamino)ethoxy)phenyl)-6-(2-fluoro-4-(5-methyl-1,2,4-oxadiazol-3-yl)phenyl)nicotinamide]	2810	2000				
Cc1nc(-c2ccc(-c3ccc(C(=O)Nc4ccc(C#N)c(OCCN(C)C)c4)cn3)c(Cl)c2)no1 [Example 9, 6-(2-chloro-4-(5-methyl-1,2,4-oxadiazol-3-yl)phenyl)-N-(4-cyano-3-(2-(dimethylamino)ethoxy)phenyl)nicotinamide]	990	880				
Cc1nc(-c2ccc(-c3ccc(C(=O)Nc4cc(OCCN(C)C)c(Br)cn4)cc3)c(F)c2)no1 [Example 16, N-(5-bromo-4-(2-(dimethylamino)ethoxy)pyridin-2-yl)-2′-fluoro-4′-(5-methyl-1,2,4-oxadiazol-3-yl)-[1,1′-biphenyl]-4-carboxamide]	1080	460				
Cc1nc(-c2ccc(-c3ccc(C(=O)Nc4cc(OCCN(C)C)c(Br)cn4)cc3)c(Cl)c2)no1 [Example 17, N-(5-bromo-4-(2-(dimethylamino)ethoxy)pyridin-2-yl)-2′-chloro-4′-(5-methyl-1,2,4-oxadiazol-3-yl)-[1,1′-biphenyl]-4-carboxamide]	2650	1320				
Cc1nc(-c2ccc(-c3ccc(C(=O)Nc4cc(OCCN(C)C)c(Br)cn4)cc3)c(C(F)(F)F)c2)no1 [Example 18, N-(5-bromo-4-(2-(dimethylamino)ethoxy)pyridin-2-yl)-4′-(5-methyl-1,2,4-oxadiazol-3-yl)-2′-(trifluoromethyl)-[1,1′-biphenyl]-4-carboxamide]	1170	420				
COc1cc(-c2noc(C)n2)ccc1-c1ccc(C(=O)Nc2cc(OCCN(C)C)c(C#N)cn2)cc1 [Example 25, N-(5-cyano-4-(2-(dimethylamino)ethoxy)pyridin-2-yl)-2′-methoxy-4′-(5-methyl-1,2,4-oxadiazol-3-yl)-[1,1′-biphenyl]-4-carboxamide]	2800	2690				
Cc1nc(-c2ccc(-c3ccc(C(=O)Nc4ccc(C#N)c(OCCN(C)C)n4)cc3)c(C3CC3)c2)no1 [Example 30, N-(5-cyano-6-(2-(dimethylamino)ethoxy)pyridin-2-yl)-2′-cyclopropyl-4′-(5-methyl-1,2,4-oxadiazol-3-yl)-[1,1′-biphenyl]-4-carboxamide]	1030	2800				
Cc1nc(-c2ccc(-c3ccc(C(=O)Nc4cc(OCCN(C)C)c(Br)cn4)cn3)c(F)c2)no1 [Example 40, N-(5-bromo-4-(2-(dimethylamino)ethoxy)pyridin-2-yl)-6-(2-fluoro-4-(5-methyl-1,2,4-oxadiazol-3-yl)phenyl)nicotinamide]	1010	570			3.5	1500
Cc1nc(-c2ccc(-c3ccc(C(=O)Nc4cc(OCCN(C)C)c(Br)cn4)cn3)c(Cl)c2)no1 [Example 41, N-(5-bromo-4-(2-(dimethylamino)ethoxy)pyridin-2-yl)-6-(2-chloro-4-(5-methyl-1,2,4-oxadiazol-3-yl)phenyl)nicotinamide]					0.3	1000
Cc1nc(-c2ccc(-c3ccc(C(=O)Nc4cc(OCCN(C)C)c(Br)cn4)cn3)c(C(F)(F)F)c2)no1 [Example 42, N-(5-bromo-4-(2-(dimethylamino)ethoxy)pyridin-2-yl)-6-(4-(5-methyl-1,2,4-oxadiazol-3-yl)-2-(trifluoromethyl)phenyl)nicotinamide]					2	3500
Cc1nc(-c2ccc(-c3ccc(C(=O)Nc4ccc(Br)c(OCCN(C)C)n4)cn3)c(C3CC3)c2)no1 [Example 51, N-(5-bromo-6-(2-(dimethylamino)ethoxy)pyridin-2-yl)-6-(2-cyclopropyl-4-(5-methyl-1,2,4-oxadiazol-3-yl)phenyl)nicotinamide]	1990	1200				
Cc1nc(-c2ccc(-c3ccc(C(=O)Nc4ccc(Br)c(OCCN(C)C)n4)cn3)c(F)c2)no1 [Example 52, N-(5-bromo-6-(2-(dimethylamino)ethoxy)pyridin-2-yl)-6-(2-fluoro-4-(5-methyl-1,2,4-oxadiazol-3-yl)phenyl)nicotinamide]	1030	4320				
Cc1nc(-c2ccc(-c3ccc(C(=O)Nc4ccc(Br)c(OCCN(C)C)n4)cn3)c(Cl)c2)no1 [Example 53, N-(5-bromo-6-(2-(dimethylamino)ethoxy)pyridin-2-yl)-6-(2-chloro-4-(5-methyl-1,2,4-oxadiazol-3-yl)phenyl)nicotinamide]	600	1320				
Cc1nc(-c2ccc(-c3ccc(C(=O)Nc4ccc(C#N)c(OCCN(C)C)n4)cn3)c(Cl)c2)no1 [Example 56, 6-(2-chloro-4-(5-methyl-1,2,4-oxadiazol-3-yl)pheny)-N-(5-cyano-6-(2-(dimethylamino)ethoxy)pyridin-2-yl)nicotinamide]			620	2020		
Cc1nc(-c2ccc(-c3ccc(C(=O)Nc4ncc(Br)c(OCCN(C)C)n4)cn3)c(F)c2)no1 [Example 58, N-(5-bromo-4-(2-(dimethylamino)ethoxy)pyrimidin-2-yl)-6-(2-fluoro-4-(5-methyl-1,2,4-oxadiazol-3-yl)phenyl)nicotinamide]	3790	2610				
Cc1nc(-c2ccc(-c3ccc(NC(=O)c4ccc(C#N)c(OCCN(C)C)c4)cn3)c(Cl)c2)no1 [Example 73, N-(6-(2-chloro-4-(5-methyl-1,2,4-oxadiazol-3-yl)phenyl)pyridin-3-yl)-4-cyano-3-(2-(dimethylamino)ethoxy)benzamide]	1530	3080				
Cc1nc(-c2ccc(-c3ccc(C(=O)N4CCc5cc6c(cc54)C4(CCN(C)CC4)CO6)cc3)c(C)c2)no1 [SB9, 1′-Methyl-5-[[2′-methyl-4′-(5-methyl-1,2,4-oxadiazol-3-yl)biphenyl-4-yl]carbonyl]-2,3,6,7-tetrahydrospiro[furo[2,3-f]indole-3,4′-piperidine hydrochloride, reference compound]	4780	1180				5.92
